This note sets out measurements from patent publication US20260216239A1 (Arizona Board of Regents on Behalf of the University of …, priority 2020, published 2026).

For experiment [1], the system named is Calloselasma rhodostoma venom. In words: Thrombelastography in human plasma of venom procoagulant activity after isolated exposure of venom to compounds. It counts as biochemical. The conditions noted are these: venom exposed to 100 μM carboplatin, 100 μM CORM-2 or both; venom 5 μg/ml in plasma. Here is the method:
(§1) Thrombelastographic analyses. The volumes of subsequently described plasmatic and other additives summed to a final volume of 360 μl. Samples were composed of 320 μl of plasma; 16.4 μl of PBS, 20 μl of 200 mM CaCl2), and 3.6 μl of PBS or venom mixture, which were pipetted into a disposable cup in a Thrombelastograph® hemostasis system (Model 5000, Haemonetics Inc., Braintree, MA, USA) at 37° C., and then rapidly mixed by moving the cup up against and then away from the plastic pin five times. The following viscoelastic parameters described previously (see, Nielsen V G (2019) J Thromb Thrombolysis 47, 73-79; Gessner G, et al., (2017) Eur J Pharmacol 815, 33-41; Nielsen V G, Wagner M T, Frank N (2020) Int J Mol Sci 21, 2082; Lazić D, Arsenijević A, Puchta R, Bugarčić ŽD, Rilak A (2016) Dalton Trans 45, 4633; Hanif M, et al., (2017) ChemPlusChem 82, 841-847) were measured: time to maximum rate of thrombus generation (TMRTG): this is the time interval (minutes) observed prior to maximum speed of clot growth; maximum rate of thrombus generation (MRTG): this is the maximum velocity of clot growth observed (dynes/cm^2/second); and total thrombus generation (TTG, dynes/cm^2), the final viscoelastic resistance observed after clot formation.
C. rhodostoma. […] The final concentration of this venom in plasma was 5 μg/ml.
(§2) Given the aforementioned, the experimental conditions utilized were: 1) V condition—venom in PBS; 2) Ru(II) condition—venom exposed to CORM-2; 3) Ru(III) condition—venom exposed to RuCl3; 4) Ru(II+III) condition—venom exposed to CORM-2 and RuCl3 simultaneously. After the 5 minute period at room temperature, 3.6 μl of one of these solutions was added to the plasma sample in the plastic thrombelastograph cup.
(§3) The volumes of subsequently described plasmatic and other additives summed to a final volume of 360 μl. Samples were composed of 320 μl of plasma; 16.4 μl of PBS, 20 μl of 200 mM CaCl2), and 3.6 μl of PBS or venom mixture, which were pipetted into a disposable cup in a Thrombelastograph® hemostasis system (Model 5000, Haemonetics Inc., Braintree, MA, USA) at 37° C., and then rapidly mixed by moving the cup up against and then away from the plastic pin five times. The following viscoelastic parameters described previously (see, Nielsen, V. G. J Thromb Thrombolysis 2019, 47, 73-79; Gessner, G.; et al., Eur J Pharmacol 2017, 815, 33-41; Nielsen, V. G.; Wagner, M. T.; Frank, N. Int J Mol Sci 2020, 21, 2082; Lazid, D.; et al., Dalton Trans 2016, 45, 4633; Hanif, M.; et al., ChemPlusChem 2017, 82, 841-847) were measured: time to maximum rate of thrombus generation (TMRTG): this is the time interval (minutes) observed prior to maximum speed of clot growth; maximum rate of thrombus generation (MRTG): this is the maximum velocity of clot growth observed (dynes/cm2/second); and total thrombus generation (TTG, dynes/cm2), the final viscoelastic resistance observed after clot formation.
C. rhodostoma. […] This venom was also exposed to 0 or 100 μM CORM-2 in the presence of 0 or 100 μM carboplatin in another series of experiments. The final concentration of this venom in plasma was 5 μg/ml.

The test system of another experiment is Bothrops moojeni venom. Described as above. It counts as biochemical. To be noted: venom exposed to 100 μM carboplatin, 1 mM CORM-2 or both; venom 2 μg/ml in plasma. Here is the method: as §1
B. moojeni. This venom was exposed to 0 or 1 mM CORM-2 in the presence of 0 or 100 μM RuCl3 in PBS for at least 5 minutes at room temperature prior to placement into plasma followed immediately with commencement of thrombelastographic analysis. The final concentration of this venom in plasma was 2 μg/ml.
as §2, §3
B. moojeni. This venom was exposed to 0 or 1 mM CORM-2 or CORM-3 in the presence of 0 or 100 μM RuCl3 in PBS for at least 5 minutes at room temperature prior to placement into plasma followed immediately with commencement of thrombelastographic analysis. This venom was also exposed to 0 or 1 mM CORM-2 in the presence of 0 or 100 μM carboplatin in another series of experiments. The final concentration of this venom in plasma was 2 μg/ml.
Given the aforementioned, the experimental conditions utilized were: 1) V condition—venom in PBS; 2) Ru(II) condition—venom exposed to CORM-2 or CORM-3; 3) Ru(III) condition—venom exposed to RuCl3; 4) Ru(II+III) condition—venom exposed to CORM-2 or CORM-3 and RuCl3 simultaneously; 5) Pt(II) condition—venom exposed to carboplatin; and 6) Pt+Ru condition—venom exposed to carboplatin and CORM-2.

In the case of `N.N.O=C([O-])C1(C(=O)[O-])CCC1.[Pt+2]` [carboplatin, reference compound], the “procoagulant activity of venom” value in experiment [1] was “no significant effect”. In the experiment with Bothrops moojeni venom, the coagulation kinetic parameters entry is on record as “no significant change in any of the coagulation kinetic parameters”.
